Tested on: 186277-243-T-J2-PDC complex spheroid viability
Test: Anticancer human tumor 186277-243-T-J2-PDC patient-derived colon adenocarcinoma cell line growth inhibition [GQUAD]
Conditions: for IC50: curve of first compound; for viability, T/C: stronger effect = lower value
Source text: DNA G-quadruplex Stabilizer Agents in Combinations in Complex Spheroids
A high-throughput screen of multi-cell type tumor spheroids was designed to identify active combinations of DNA G-quadruplex stabilizer agents and targeted small molecules. Complex spheroids include a stromal component modeled by human endothelial cells (HUVEC) and fibroblasts modeled by human mesenchymal stem cells (MSCs). The concentration ranges selected for each drug and investigational agent were based upon clinically achievable concentrations if the clinical Cmax of the agent was known.
Compounds. The drugs and investigational agents: pidnarulex (CX-5461; NSC782164), APTO-253 (NSC789042), BRACO-19 (NSC847499), peposertib (NSC802822), ceralasertib (NSC780249), elimusertib (NSC800525), camonsertib (NSC841442), AZD-1390 (NSC803789), olaparib (NSC753686), talazoparib (NSC767125), ART-558 (NSC835418), sotorasib (NSC818433), MRTX-1133 (NSC836407), SN-38 (NSC673596), topotecan (NSC609699), etoposide (NSC141540), doxorubicin (NSC123127), gemcitabine (NSC613327), 5-fluorouracil (NSC19893), paclitaxel (NSC125973), vemurafenib (NSC761431), panobinostat (NSC761190), R-306465 (JNJ-16241199; NSC773264), adavosertib (NSC754352), TP-3654 (NSC805149), carboplatin (NSC241240), KSQ-4279 (NSC840948), and staurosporine (NSC755774) were obtained from the National Cancer Institute (NCI) Developmental Therapeutics Program Chemical Repository (34). The FDA-approved anticancer drug set is available from the NCI Developmental Therapeutics Program. […] The stock solutions were prepared in dimethyl sulfoxide (DMSO, Sigma-Aldrich, St. Louis, MO, cat. D2650) at 800-fold the tested concentration and stored at -70 degrees C prior to their use. All drugs and investigational agents were tested over a range starting from a high concentration at or near the clinical Cmax and decreasing in half-log increments. If the clinical Cmax for an agent had not been determined, the highest concentration tested was 10 microM.
2.3 Cell Culture. All cells were maintained in an incubator at 37 degrees C and 5% CO2 with 95% humidity. The PDC lines were cultured according to standard operating procedures established by the NCI PDMR. All PDCs were thawed and cultured in Matrigel-coated flasks prepared with a working solution of 1X Ham's F-12 nutrient mix, without supplementation (Invitrogen, cat. 11765054), 100 U/mL penicillin-streptomycin (Invitrogen, cat. 15140122), and 2.5% Matrigel (Corning Inc., cat. 354248) for the first three passages. The 857933-349-R-J2-PDC line was cultured in 6C/Colon 1B media, which includes advanced DMEM/F-12 (Thermo Fisher Scientific, cat. 12634028), 10 mM HEPES (Thermo Fisher Scientific, cat. 15630080), 1X GlutaMAX supplement (Thermo Fisher Scientific, cat. 35050061), 0.1 mg/mL primocin (InvivoGen, cat. ant-pm-2), 10% defined fetal bovine serum, heat inactivated (HyClone Laboratories Inc., cat. SH30070.03HI), 50% L-WRN conditioned media (ATCC, cat. CRL-3276), 1.25 mM N-Acetyl-L-cysteine (Sigma-Aldrich, cat. A9165), 10 mM nicotinamide (Sigma-Aldrich, cat. N0636), 1X B-27 supplement (Thermo Fisher Scientific, cat. 17504044), 1X N-2 supplement (Thermo Fisher Scientific, cat. 17502048), 10 microM Y-27632 dihydrochloride (Tocris Bioscience, cat. 1254), and 50 ng/mL human EGF recombinant protein (Thermo Fisher Scientific, cat. PHG0311). The 485176-168-R4-J1-PDC line was cultured in Panc media, which includes all 6C/Colon 1B media components plus 100 ng/mL human FGF-10 (Thermo Fisher Scientific, cat. 100-26), 500 nM SB-431542 (Selleckchem, cat. S1067), and gastrin (Tocris, cat. 3006).
[…]

[1] = second compound 0.0316 µM, first compound 0.0316 µM
[2] = second compound 0.0316 µM, first compound 0.316 µM
[3] = second compound 0.1 µM, first compound 0.0316 µM
[4] = second compound 0.1 µM, first compound 0.316 µM
[5] = second compound 0.316 µM, first compound 0.0316 µM
[6] = second compound 0.316 µM, first compound 0.316 µM
[7] = second compound 1 µM, first compound 0.0316 µM
[8] = second compound 1 µM, first compound 0.316 µM
[9] = second compound 3.16 µM, first compound 0.0316 µM
[10] = second compound 3.16 µM, first compound 0.316 µM
[11] = second compound 10 µM, first compound 0.0316 µM
[12] = second compound 10 µM, first compound 0.316 µM
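Further: spheroids exposed to drugs for 7 days.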
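Wherever viability, T/C is given: 100% = DMSO vehicle control viability.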

Cc1[nH]c2ccccc2c1CCNCc1ccc(/C=C/C(=O)NO)cc1 + Cc1[nH]c2ccc(F)cc2c1-c1nc2c3cccnc3c3ncccc3c2[nH]1
IC50 (second compound 0.0316 µM): 41.3 nM | IC50 (second compound 0.1 µM): 44.2 nM | IC50 (second compound 0.316 µM): 47.1 nM | IC50 (second compound 1 µM): 41.8 nM | IC50 (second compound 3.16 µM): 40.4 nM | IC50 (second compound 10 µM): 47.5 nM | viability, T/C (second compound 0.0316 µM, first compound 0.000999 µM): 110% | viability, T/C (second compound 0.0316 µM, first compound 0.00316 µM): 108% | viability, T/C (second compound 0.0316 µM, first compound 0.00999 µM): 104% | viability, T/C [1]: 62.1% | viability, T/C (second compound 0.0316 µM, first compound 0.0999 µM): 9.83% | viability, T/C [2]: 0.44% | viability, T/C (second compound 0.1 µM, first compound 0.000999 µM): 115% | viability, T/C (second compound 0.1 µM, first compound 0.00316 µM): 105% | viability, T/C (second compound 0.1 µM, first compound 0.00999 µM): 90.7% | viability, T/C [3]: 69.8% | viability, T/C (second compound 0.1 µM, first compound 0.0999 µM): 10.4% | viability, T/C [4]: 0.56% | viability, T/C (second compound 0.316 µM, first compound 0.000999 µM): 93.3% | viability, T/C (second compound 0.316 µM, first compound 0.00316 µM): 101% | viability, T/C (second compound 0.316 µM, first compound 0.00999 µM): 97% | viability, T/C [5]: 71.2% | viability, T/C (second compound 0.316 µM, first compound 0.0999 µM): 9.88% | viability, T/C [6]: 1.7% | viability, T/C (second compound 1 µM, first compound 0.000999 µM): 90.5% | viability, T/C (second compound 1 µM, first compound 0.00316 µM): 107% | viability, T/C (second compound 1 µM, first compound 0.00999 µM): 104% | viability, T/C [7]: 62.8% | viability, T/C (second compound 1 µM, first compound 0.0999 µM): 9.69% | viability, T/C [8]: 0.96% | viability, T/C (second compound 3.16 µM, first compound 0.000999 µM): 101% | viability, T/C (second compound 3.16 µM, first compound 0.00316 µM): 111% | viability, T/C (second compound 3.16 µM, first compound 0.00999 µM): 100% | viability, T/C [9]: 61.1% | viability, T/C (second compound 3.16 µM, first compound 0.0999 µM): 9% | viability, T/C [10]: 0.47% | viability, T/C (second compound 10 µM, first compound 0.000999 µM): 95% | viability, T/C (second compound 10 µM, first compound 0.00316 µM): 98.5% | viability, T/C (second compound 10 µM, first compound 0.00999 µM): 99.9% | viability, T/C [11]: 71.1% | viability, T/C (second compound 10 µM, first compound 0.0999 µM): 11.2% | viability, T/C [12]: 1.07%

O=C(NO)c1cnc(N2CCN(S(=O)(=O)c3ccc4ccccc4c3)CC2)nc1 + Cc1[nH]c2ccc(F)cc2c1-c1nc2c3cccnc3c3ncccc3c2[nH]1
IC50 (second compound 0.0316 µM): 183 nM | IC50 (second compound 0.1 µM): 187 nM | IC50 (second compound 0.316 µM): 203 nM | IC50 (second compound 1 µM): 190 nM | IC50 (second compound 3.16 µM): 203 nM | IC50 (second compound 10 µM): 218 nM | viability, T/C [1]: 100% | viability, T/C (second compound 0.0316 µM, first compound 0.1 µM): 94% | viability, T/C [2]: 9.84% | viability, T/C (second compound 0.0316 µM, first compound 1 µM): 0.27% | viability, T/C (second compound 0.0316 µM, first compound 3.16 µM): 0.17% | viability, T/C (second compound 0.0316 µM, first compound 10 µM): 0.17% | viability, T/C [3]: 117% | viability, T/C (second compound 0.1 µM, first compound 0.1 µM): 95% | viability, T/C [4]: 12.1% | viability, T/C (second compound 0.1 µM, first compound 1 µM): 0.25% | viability, T/C (second compound 0.1 µM, first compound 3.16 µM): 0.14% | viability, T/C (second compound 0.1 µM, first compound 10 µM): 0.12% | viability, T/C [5]: 103% | viability, T/C (second compound 0.316 µM, first compound 0.1 µM): 115% | viability, T/C [6]: 13.1% | viability, T/C (second compound 0.316 µM, first compound 1 µM): 0.3% | viability, T/C (second compound 0.316 µM, first compound 3.16 µM): 0.12% | viability, T/C (second compound 0.316 µM, first compound 10 µM): 0.11% | viability, T/C [7]: 91.5% | viability, T/C (second compound 1 µM, first compound 0.1 µM): 95.1% | viability, T/C [8]: 15.3% | viability, T/C (second compound 1 µM, first compound 1 µM): 0.34% | viability, T/C (second compound 1 µM, first compound 3.16 µM): 0.11% | viability, T/C (second compound 1 µM, first compound 10 µM): 0.13% | viability, T/C [9]: 100% | viability, T/C (second compound 3.16 µM, first compound 0.1 µM): 98.2% | viability, T/C [10]: 19.7% | viability, T/C (second compound 3.16 µM, first compound 1 µM): 0.38% | viability, T/C (second compound 3.16 µM, first compound 3.16 µM): 0.14% | viability, T/C (second compound 3.16 µM, first compound 10 µM): 0.16% | viability, T/C [11]: 100% | viability, T/C (second compound 10 µM, first compound 0.1 µM): 98.5% | viability, T/C [12]: 26.7% | viability, T/C (second compound 10 µM, first compound 1 µM): 0.52% | viability, T/C (second compound 10 µM, first compound 3.16 µM): 0.2% | viability, T/C (second compound 10 µM, first compound 10 µM): 0.22%

Reference: PubChem BioAssay AID2060512 (Molecular Pharmacology Branch, DTP, NCI, 2025)
